According to US4600710A, “β-Adrenergic receptor agonist alkylaminoalkyl pyridinemethanol derivatives” (G. D. Searle & Co., priority 1985, dated 1986):
Structures can show the parent of a compound that is named as a salt.

Key:
β-adrenergic receptor = target: T1, β-adrenergic receptor (Rattus norvegicus, UniProt P10608); assay: Beta-adrenergic receptor binding ([3H]DHA displacement, rat cerebellum plasma membranes); settings: rat cerebellum cortex membranes, 1 nM [3H]DHA; read-out: IC50, inhibition of β-adrenergic receptor binding of tritiated dihydroalprenolol
T1 construct: Rat cerebellums were homogenized in 20 volumes of ice cold 50 mM Tris-HCl buffer; from tissue; host or cells: rat cerebellum (crude plasma membranes)
Method: Tissue preparation: Rat cerebellum plasma membranes were prepared by the method of U'Prichard et al, (J. Biol. Chem., 253, No. 14, pp. 5090-5102, 1978). Rat cerebellums were homogenized in 20 volumes of ice cold 50 mM Tris-HCl buffer (pH 7.4) with a Tekmar homogenizer. Crude plasma membranes were obtained by centrifugation at 45,000× g for 15 min with an intermediate rehomogenization in fresh buffer. The final pellets were resuspended in ten volumes of 50 mM buffer with 0.25M sucrose.
Binding Assay: Rat cerebellum plasma membrane preparations (10 mg wet weight per ml in a volume of one ml) were incubated with 1 nM [^3 H] DHA in buffer, 1 mM catechol and 0.01% ascorbic acid, either in the presence or absence of various amounts of test substance at room temperature for 20 minutes. Bound and free radioligand were separated by addition of 3.5 ml buffer (0° C.) followed by rapid filtration through Whatman GF/B glass fiber filter. The filter was then washed rapidly with three 3.5 ml buffer (3X). Specific binding was defined as the amount of the [^3 H]DHA bound in the absence of competing ligand minus the amount bound in the presence of 10 uM (±) propranolol (nonspecific binding). […] IC50 (inhibitory concentration -50%) values were calculated from the displacement data after logit-log transformation with least squares linear regression.

[1] = system: spontaneously hypertensive rats; assay: Systemic hemodynamics in pentobarbital anesthetized spontaneously hypertensive rats; format: in vivo, rat
Method: Five adult male spontaneously hypertensive rats were anesthetized with sodium pentobarbital and instrumented with a femoral artery catheter for measuring arterial pressure and heart rate. The jugular vein was catheterized for injections and a thermocouple was placed in the aortic arch via the carotid artery for cardiac output measurement by the thermodilution technique. The trachea was cannulated and the rats breathed 100% oxygen. Control readings were taken and the test compound was injected in doses ranging from 0.1 to 30 mg/kg iv. After the 30 mg/kg dose, propranolol was injected iv at a dose of 1 mg/kg. Changes in hemodynamic parameters from control readings were analyzed by the paired t-test.

[2] = system: spontaneously hypertensive rats; assay: Oral dosing studies in conscious spontaneously hypertensive rats; format: in vivo, rat; settings: conscious SHR, daily oral dosing 100 mg/kg for 3 days
Method: Ten adult male spontaneously hypertensive rats were anesthetized with sodium pentobarbital and instrumented with a carotid arterial catheter. On the following day each rat was tethered in a plastic cage and arterial blood pressure and heart rate were monitored via the arterial catheter continuously for 72 hours. Each rat was dosed intragastrically with 100 mg/kg of the test compound each day for three days. A vehicle treated group (saline) of 10 rats was tested simultaneously. Differences in blood pressure between the treated and vehicle group were analyzed by the Kraskal-Wallis and Wilcoxon rank sum tests.

[3] = system: spontaneously hypertensive rats; assay: Intravenous dose-response studies in conscious spontaneously hypertensive rats; format: in vivo, rat; settings: conscious SHR
Method: Six adult male spontaneously hypertensive rats were anesthetized with ether and instrumented with carotid artery and jugular vein catheters. The rats were allowed to recover from surgery and ether anesthesia for three to five hours. The test compound was administered intravenously in saline at doses of 0.1, 0.2, 0.7, 2, 7, and 20 mg/kg to give cumulative doses of 0.1, 0.3, 1, 3, 10, and 30 mg/kg. At the completion of these injections propranolol, a beta-adrenergic antagonist, was administered intravenously at a dose of 1 mg/kg and the injections of the test compound were repeated. The volume of each injection was 0.1 ml/100 grams of body weight. Mean arterial pressure and heart rate were measured via the carotid artery with a Statham pressure transducer and Gould physiological recorder. Results were analyzed using a paired t-test.

T1 sequence (P10608 whole entry): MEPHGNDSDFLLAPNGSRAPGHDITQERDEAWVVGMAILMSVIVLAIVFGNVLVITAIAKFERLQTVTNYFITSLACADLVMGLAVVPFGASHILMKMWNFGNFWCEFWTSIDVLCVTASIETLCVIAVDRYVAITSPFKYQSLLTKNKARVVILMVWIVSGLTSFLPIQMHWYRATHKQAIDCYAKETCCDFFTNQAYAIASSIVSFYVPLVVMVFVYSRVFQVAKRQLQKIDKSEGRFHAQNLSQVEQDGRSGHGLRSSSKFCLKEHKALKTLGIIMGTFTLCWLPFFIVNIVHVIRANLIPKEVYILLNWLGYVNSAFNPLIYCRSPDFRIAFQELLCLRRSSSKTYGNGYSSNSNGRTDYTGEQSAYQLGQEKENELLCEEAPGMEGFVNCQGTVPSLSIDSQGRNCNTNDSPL

Structure (SMILES)	IC50 (β-adrenergic receptor) [µM]	total peripheral resistance after compound ([1]; pentobarbital anesthetized SHR, iv 0.1 to 30 mg/kg, decreased from control 3 units) [units]	cardiac output after compound ([1]; pentobarbital anesthetized SHR, iv 0.1 to 30 mg/kg, increased from control 72 ml/min) [mL/min]	elevation of heart rate [2] [beats/min]	time pressure remained reduced [2] [h]	lowering of mean arterial pressure ([2]; at 3-4 hours after dosing) [mmHg]	ED25 ([3]; Rattus norvegicus, iv, cumulative doses 0.1-30 mg/kg, read-out: calculated intravenous dose reducing mean arterial pressure by 25%) [mg/kg]	effect of propranolol on hemodynamic effects (cardiac output, total peripheral resistance) of the compound of the invention ([1]; propranolol 1 mg/kg iv after the 30 mg/kg dose, anesthetized SHR)	effect of propranolol on blood pressure and heart rate changes produced by the compound of the invention ([3]; propranolol 1 mg/kg iv)
CC(C)NCC(O)c1cccnc1 (stereo not drawn) [Example 1B, oxalate salt]	39	1.1	92	114	6 to 10	39	37		
CC(C)NCC(O)COc1cccc2ccccc12 (stereo not drawn) [Propranolol, propranolol, reference compound]								reversed these hemodynamic effects	attenuated the hypertension and tachycardia
